In ChEMBL document CHEMBL3885861, “Open TG-GATES”:

Species on record: Rattus norvegicus
Experiment: Open TG-GATES - Regimen: Single
Format: toxicity, organism-based, Sprague-Dawley
Parameters: regimen Single, gender Male, age 6 weeks
Details: in vivo, po, 0 mg/kg, route gavage, dose level Control; for APTT / Bas / Eos / Fbg / Hb / Ht / Lym / MCH / MCHC / MCV / Mono / Neu / PT / Plat / RBC / Ret / WBC: tissue Blood; for KIDNEY_L / KIDNEY_R / KIDNEY_TOTAL: tissue Kidney; for LIVER: tissue Liver; for A/G / ALP / ALT / AST / BUN / CRE / Ca / Cl / DBIL / GLC / IP / K / LDH / Na / PL / RALB / TBIL / TC / TG / TP / gamma-GTP: tissue Plasma

What does the source list for `COc1ccc(Cc2nccc3cc(OC)c(OC)cc23)cc1OC` [PAPAVERINE]?
TERMINAL_BW (3 h): 223.5 g; APTT (3 h): 21.8 s; Bas (3 h): 0%; Eos (3 h): 0.8%; Fbg (3 h): 332.6 mg/dL; Hb (3 h): 13.5 g/dL; Ht (3 h): 40.3%; Lym (3 h): 80.6%; MCH (3 h): 21.3 pg; MCHC (3 h): 33.5%; MCV (3 h): 63.4 fL; Mono (3 h): 2.2%; Neu (3 h): 15%; PT (3 h): 15.8 s; Plat (3 h): 108.7 x10_4/uL; RBC (3 h): 637.4 x10_4/ul; Ret (3 h): 7.9%; WBC (3 h): 110.9 x10_2/uL; KIDNEY_L (3 h): 1 g; KIDNEY_R (3 h): 1 g; KIDNEY_TOTAL (3 h): 2 g; LIVER (3 h): 10.2 g; A/G (3 h): 1.2; ALP (3 h): 1651.2 IU/L; ALT (3 h): 42.8 IU/L; AST (3 h): 73 IU/L; BUN (3 h): 14 mg/dL; CRE (3 h): 0.1 mg/dL; Ca (3 h): 11 mg/dL; Cl (3 h): 108.6 meq/L; DBIL (3 h): 0 mg/dL; GLC (3 h): 193.6 mg/dL; IP (3 h): 7.8 mg/dL; K (3 h): 4 meq/L; LDH (3 h): 147.2 IU/L; Na (3 h): 141.6 meq/L; PL (3 h): 140.2 mg/dL; RALB (3 h): 3 g/dL; TBIL (3 h): 0.01 mg/dL; TC (3 h): 82.6 mg/dL; TG (3 h): 55 mg/dL; TP (3 h): 5.5 g/dL; gamma-GTP (3 h): 2 IU/L; TERMINAL_BW (6 h): 214 g; APTT (6 h): 23 s; Bas (6 h): 0%; Eos (6 h): 0.6%; Fbg (6 h): 325.8 mg/dL; Hb (6 h): 13.8 g/dL; Ht (6 h): 41.4%; Lym (6 h): 82.8%; MCH (6 h): 20.8 pg; MCHC (6 h): 33.3%; MCV (6 h): 62.5 fL; Mono (6 h): 2.2%; Neu (6 h): 13.4%; PT (6 h): 15.9 s; Plat (6 h): 116.4 x10_4/uL; RBC (6 h): 664 x10_4/ul; Ret (6 h): 7.4%; WBC (6 h): 118.9 x10_2/uL; KIDNEY_L (6 h): 0.9 g; KIDNEY_R (6 h): 0.9 g; KIDNEY_TOTAL (6 h): 1.8 g; LIVER (6 h): 9.4 g; A/G (6 h): 1.2; ALP (6 h): 1310.2 IU/L; ALT (6 h): 38.4 IU/L; AST (6 h): 74.4 IU/L; BUN (6 h): 10 mg/dL; CRE (6 h): 0.1 mg/dL; Ca (6 h): 11 mg/dL; Cl (6 h): 106.2 meq/L; DBIL (6 h): 0.002 mg/dL; GLC (6 h): 180.6 mg/dL; IP (6 h): 8.8 mg/dL; K (6 h): 4.3 meq/L; LDH (6 h): 159.6 IU/L; Na (6 h): 140.8 meq/L; PL (6 h): 131.6 mg/dL; RALB (6 h): 2.9 g/dL; TBIL (6 h): 0.01 mg/dL; TC (6 h): 79.2 mg/dL; TG (6 h): 47.6 mg/dL; TP (6 h): 5.3 g/dL; gamma-GTP (6 h): 2 IU/L; TERMINAL_BW (9 h): 213.9 g; APTT (9 h): 22.9 s; Bas (9 h): 0%; Eos (9 h): 1%; Fbg (9 h): 312.8 mg/dL; Hb (9 h): 13.1 g/dL; Ht (9 h): 39.9%; Lym (9 h): 81.2%; MCH (9 h): 20.3 pg; MCHC (9 h): 33%; MCV (9 h): 61.6 fL; Mono (9 h): 2.4%; Neu (9 h): 14.4%; PT (9 h): 15.6 s; Plat (9 h): 107.7 x10_4/uL; RBC (9 h): 647.6 x10_4/ul; Ret (9 h): 7.9%; WBC (9 h): 110.4 x10_2/uL; KIDNEY_L (9 h): 0.9 g; KIDNEY_R (9 h): 0.9 g; KIDNEY_TOTAL (9 h): 1.9 g; LIVER (9 h): 9.1 g; A/G (9 h): 1.3; ALP (9 h): 1489.8 IU/L; ALT (9 h): 41.2 IU/L; AST (9 h): 69.4 IU/L; BUN (9 h): 11.2 mg/dL; CRE (9 h): 0.1 mg/dL; Ca (9 h): 10.9 mg/dL; Cl (9 h): 105.8 meq/L; DBIL (9 h): 0 mg/dL; GLC (9 h): 190.8 mg/dL; IP (9 h): 9.1 mg/dL; K (9 h): 4.2 meq/L; LDH (9 h): 169 IU/L; Na (9 h): 140.6 meq/L; PL (9 h): 134.6 mg/dL; RALB (9 h): 3 g/dL; TBIL (9 h): 0.016 mg/dL; TC (9 h): 78.4 mg/dL; TG (9 h): 75 mg/dL; TP (9 h): 5.3 g/dL; gamma-GTP (9 h): 1.6 IU/L; TERMINAL_BW (24 h): 237.4 g; APTT (24 h): 21.6 s; Bas (24 h): 0%; Eos (24 h): 1%; Fbg (24 h): 315.8 mg/dL; Hb (24 h): 13.5 g/dL; Ht (24 h): 40%; Lym (24 h): 81%; MCH (24 h): 21 pg; MCHC (24 h): 33.6%; MCV (24 h): 62.6 fL; Mono (24 h): 2.8%; Neu (24 h): 14.6%; PT (24 h): 16 s; Plat (24 h): 106.2 x10_4/uL; RBC (24 h): 639.4 x10_4/ul; Ret (24 h): 7.5%; WBC (24 h): 110.4 x10_2/uL; KIDNEY_L (24 h): 1 g; KIDNEY_R (24 h): 1 g; KIDNEY_TOTAL (24 h): 2.1 g; LIVER (24 h): 11.3 g; A/G (24 h): 1.3; ALP (24 h): 1563.2 IU/L; ALT (24 h): 46.2 IU/L; AST (24 h): 72.2 IU/L; BUN (24 h): 15.4 mg/dL; CRE (24 h): 0.1 mg/dL; Ca (24 h): 10.8 mg/dL; Cl (24 h): 106.2 meq/L; DBIL (24 h): 0 mg/dL; GLC (24 h): 198.2 mg/dL; IP (24 h): 7.9 mg/dL; K (24 h): 4.4 meq/L; LDH (24 h): 179.4 IU/L; Na (24 h): 143 meq/L; PL (24 h): 142.6 mg/dL; RALB (24 h): 3 g/dL; TBIL (24 h): 0.01 mg/dL; TC (24 h): 77 mg/dL; TG (24 h): 87.8 mg/dL; TP (24 h): 5.3 g/dL; gamma-GTP (24 h): 1.8 IU/L
